What is called IC50 is the concentration at which inhibition is half-maximal.

In one test the test system is recombinant human SK. Briefly: Inhibition of recombinant human SK, LC/MS/MS assay. Type of test: biochemical. To be noted: 6 μg/ml compound. How it is done: SK activity is measured by incubation of the recombinant SK with [^3H]sphingosine and 1 mM ATP under defined conditions, followed by extraction of the assay mixture with chloroform:methanol under basic conditions. […] Radioactivity in aliquots of the aqueous phase is then quantified as a measure of [^3H]S1P formation.
In an alternate assay procedure, the recombinant human SK was incubated with unlabeled sphingosine and ATP as described above. After 30 minutes, the reactions were terminated by the addition of acetonitrile to directly extract the newly synthesized S1P. The amount of S1P in the samples is then quantified as follows. C17 base D-erythro-sphingosine and C17 SIP are used as internal standards for sphingosine and S1P, respectively. […] The lipids are then fractionation by High-Performance Liquid Chromatography using a C8-reverse phase column eluted with 1 mM methanolic ammonium formate/2 mM aqueous ammonium formate. […] Calibration curves are generated by plotting the peak area ratios of the synthetic standards for each sphingolipid, and used to determine the normalized amounts of sphingosine and S1P in the samples.
Each Compound of this invention was tested for its ability to inhibit recombinant SK using the LC/MS/MS assay described above.

Test [1] concerns MCF-7 human breast adenocarcinoma cells. Briefly: Cytotoxicity, SRB binding assay. The test is classed as cell-based. As to conditions: MCF7, inhibition of cell proliferation, 48 h, read-out: MCF-7 IC50. The protocol:
To further assess the biological efficacies of the Compounds in intact cells, each Compound was evaluated for cytotoxicity using human cancer cell lines. These experiments followed methods that have been extensively used. Cell lines tested included MCF-7 human breast adenocarcinoma cells and MCF-10A non-transformed human breast epithelial cells. The indicated cell lines were treated with varying doses of the test Compound for 48 h. Cell survival was then determined using the SRB binding assay (Skehan et al., 1990, J Natl Cancer Inst 82: 1107), and the concentration of compound that inhibited proliferation by 50% (the IC50) was calculated. Values (in μM) represent the mean±sd for replicate trials.
For orientation: Sulforhodamine B stains cellular protein and so reports cell mass.

On to `O=C(NCCN1CCNCC1)C12CC3CC(C1)CC(c1ccc(Cl)cc1)(C3)C2` [Compound 59, 3-(4-Chloro-phenyl)-adamantane-1-carboxylic acid (2-piperazin-1-yl-ethyl)-amide], for which the “Recombinant SK (% inhibition)” value in the test on recombinant human SK is reported as 0%. Turning to `O=C(/C=C/c1cc(-c2ccccc2)cs1)C12CC3CC(C1)CC(c1ccc(Cl)cc1)(C3)C2` [Compound 137, 1-[3-(4-Chloro-phenyl)-adamantan-1-yl]-3-(4-phenyl-thiophen-2-yl)-propenone], the half-inhibitory concentration (IC50) in test [1] was 9 µM. On the same count and under the same terms, as for `O=C(NCc1cccc(C(F)(F)F)c1)C12CC3CC(C1)CC(c1ccc(Cl)cc1)(C3)C2` [Compound 15, 3-(4-Chloro-phenyl)-adamantane-1-carboxylic acid 3-trifluoromethyl-benzylamide], the figure is > 112 µM.

For the compound `CN1CCC(NCC23CC4CC(C2)CC(c2ccc(Cl)cc2)(C4)C3)CC1` [Compound 82, [3-(4-Chloro-phenyl)-adamantan-1-ylmethyl]-(1-methyl-piperidin-4-yl)-amine], in the test on recombinant human SK, the “Recombinant SK (% inhibition)” value is given as 75%.

Consider `CC(NCCc1ccncc1)C12CC3CC(CC(c4ccc(Cl)cc4)(C3)C1)C2` (stereo not shown) [Compound 111, {1-[3-(4-Chloro-phenyl)-adamantan-1-yl]-ethyl}-(2-pyridin-4-yl-ethyl)-amine], for which the IC50 in test [1] was determined as 13 µM. The same measure, in the same setting: as for `CC(Nc1ccccc1)C12CC3CC(CC(c4ccc(F)cc4)(C3)C1)C2` (stereo not shown) [Compound 94, {1-[3-(4-Fluoro-phenyl)-adamantan-1-yl]-ethyl}-phenyl-amine], the figure is 0.6 µM. For the compound `Clc1ccc(C23CC4CC(CC(CNCCc5cccc(Oc6ccccc6)c5)(C4)C2)C3)cc1` [Compound 81, [3-(4-Chloro-phenyl)-adamantan-1-ylmethyl]-[2-(3-phenoxy-phenyl)-ethyl]-amine], in the test with recombinant human SK, the “Recombinant SK (% inhibition)” value amounted to 67%. As to `O=C1CCCN1CCCNC(=O)C12CC3CC(C1)CC(c1ccc(Cl)cc1)(C3)C2` [Compound 55, 3-(4-Chloro-phenyl)-adamantane-1-carboxylic acid [3-(2-oxo-pyrrolidin-1-yl)-propyl]-amide], the “Recombinant SK (% inhibition)” value with recombinant human SK amounted to 8%. Still for that read-out and setting: under `O=C(NCCCc1ccccc1)C12CC3CC(C1)CC(c1ccc(Cl)cc1)(C3)C2` [Compound 48, 3-(4-Chloro-phenyl)-adamantane-1-carboxylic acid (3-phenyl-propyl)-amide] stands 36%. In the case of `CC(NCCc1ccc(Br)cc1)C12CC3CC(CC(C3)C1)C2` (stereo not shown) [Compound 102, (1-Adamantan-1-yl-ethyl)-[2-(4-bromo-phenyl)-ethyl]-amine], the half-maximal inhibitory concentration (IC50) in test [1] came out at 2 µM.

`O=C(NCc1ccncc1)C12CC3CC(C1)CC(c1ccc(F)cc1)(C3)C2` [Compound 61, 3-(4-Fluoro-phenyl)-adamantane-1-carboxylic acid (pyridin-4-ylmethyl)-amide]: the “Recombinant SK (% inhibition)” value in the test on recombinant human SK was found to be 58%. `O=C(NCc1ccc(C(F)(F)F)cc1F)C12CC3CC(C1)CC(c1ccc(Cl)cc1)(C3)C2` [Compound 19, 3-(4-Chloro-phenyl)-adamantane-1-carboxylic acid 2-fluoro-4-trifluoromethyl-benzylamide]: in test [1], the half-maximal inhibitory concentration (IC50) is > 108 µM. Still for that read-out and setting: as for `CC(NC(=O)Nc1ccc(Cl)c(C(F)(F)F)c1)C12CC3CC(CC(c4ccc(Cl)cc4)(C3)C1)C2` (stereo not shown) [Compound 117, 1-{1-[3-(4-Chloro-phenyl)-adamantan-1-yl]-ethyl}-3-(4-chloro-3-trifluoromethyl-phenyl)-urea], the figure is 3 µM. On the same count and under the same terms, as for `CC(NCc1cc(Br)cs1)C12CC3CC(CC(c4ccc(Cl)cc4)(C3)C1)C2` (stereo not shown) [Compound 119, (4-Bromo-thiophen-2-ylmethyl)-{1-[3-(4-chloro-phenyl)-adamantan-1-yl]-ethyl}-amine], the figure is 11 µM; as for `CC(C)NCC12CC3CC(C1)CC(c1ccc(Cl)cc1)(C3)C2` [Compound 75, [3-(4-Chloro-phenyl)-adamantan-1-ylmethyl]-isopropyl-amine], 11 µM. Still for that read-out and setting: under `CCn1c2ccccc2c2cc(C(=O)NC(C)C34CC5CC(CC(c6ccc(Cl)cc6)(C5)C3)C4)ccc21` (stereo not shown) [Compound 116, 9-Ethyl-9H-carbazole-3-carboxylic acid {1-[3-(4-chloro-phenyl)-adamantan-1-yl]-ethyl}-amide] stands 6 µM; under `CC(NCc1ccccc1)C12CC3CC(CC(c4ccccc4)(C3)C1)C2` (stereo not shown) [Compound 97, Benzyl-[1-(3-phenyl-adamantan-1-yl)-ethyl]-amine], 0.5 µM; under `CC(NCc1ccccc1)C12CC3CC(CC(c4ccc(F)cc4)(C3)C1)C2` (stereo not shown) [Compound 98, Benzyl-{1-[3-(4-fluoro-phenyl)-adamantan-1-yl]-ethyl}-amine], 3 µM. As for `CC(NCc1ccncc1)C12CC3CC(CC(c4ccccc4)(C3)C1)C2` (stereo not shown) [Compound 109, [1-(3-Phenyl-adamantan-1-yl)-ethyl]-pyridin-4-ylmethyl-amine], the IC50 in test [1] was 26 µM. As to `CC(NCc1ccccc1)C12CC3CC(CC(c4ccc(Cl)cc4)(C3)C1)C2` (stereo not shown) [Compound 99, Benzyl-{1-[3-(4-chloro-phenyl)-adamantan-1-yl]-ethyl}-amine], the 50% inhibitory concentration (IC50) in test [1] is 0.7 µM. Same read-out and setting: under `Cc1cc2cc(NC(C)C34CC5CC(CC(c6ccc(Cl)cc6)(C5)C3)C4)ccc2[nH]1` (stereo not shown) [Compound 113, {1-[3-(4-Chloro-phenyl)-adamantan-1-yl]-ethyl}-(2-methyl-1H-indol-5-yl)-amine] stands 14 µM. With `CC(NC(C)C12CC3CC(CC(c4ccc(Cl)cc4)(C3)C1)C2)c1ccc(Br)cc1` (stereo not shown) [Compound 101, [1-(4-Bromo-phenyl)-ethyl]-{1-[3-(4-chloro-phenyl)-adamantan-1-yl]-ethyl}-amine], the half-maximal inhibitory concentration (IC50) in test [1] was found to be 10 µM. Still for that read-out and setting: as for `CC(NCc1cnc[nH]1)C12CC3CC(CC(c4ccc(Cl)cc4)(C3)C1)C2` (stereo not shown) [Compound 112, {1-[3-(4-Chloro-phenyl)-adamantan-1-yl]-ethyl}-(3H-imidazol-4-ylmethyl)-amine], the figure is 5 µM; as for `CC(NCc1cc(-c2ccccc2)cs1)C12CC3CC(CC(c4ccc(Cl)cc4)(C3)C1)C2` (stereo not shown) [Compound 120, {1-[3-(4-Chloro-phenyl)-adamantan-1-yl]-ethyl}-(4-phenyl-thiophen-2-ylmethyl)-amine], 108 µM. The same measure, in the same setting: as for `CCn1c2ccccc2c2cc(CNC(C)C34CC5CC(CC(c6ccc(Cl)cc6)(C5)C3)C4)ccc21` (stereo not shown) [Compound 115, {1-[3-(4-Chloro-phenyl)-adamantan-1-yl]-ethyl}-(9-ethyl-9H-carbazol-3-ylmethyl)-amine], the figure is 1 µM. Still for that read-out and setting: under `CC(NCc1ccc(Cl)nc1)C12CC3CC(CC(c4ccc(Cl)cc4)(C3)C1)C2` (stereo not shown) [Compound 110, {1-[3-(4-Chloro-phenyl)-adamantan-1-yl]-ethyl}-(6-chloro-pyridin-3-ylmethyl)-amine] stands 6 µM.

For `CC(NN1CCN(C)CC1)C12CC3CC(CC(c4ccc(Cl)cc4)(C3)C1)C2` (stereo not shown) [Compound 108, {1-[3-(4-Chloro-phenyl)-adamantan-1-yl]-ethyl}-(4-methyl-piperazin-1-yl)-amine], the 50% inhibitory concentration (IC50) in test [1] was determined as 5 µM. On the same count and under the same terms, as for `CC(NCc1ccc(C(C)(C)C)cc1)C12CC3CC(CC(c4ccc(Cl)cc4)(C3)C1)C2` (stereo not shown) [Compound 100, (4-tert-Butyl-benzyl)-{1-[3-(4-chloro-phenyl)-adamantan-1-yl]-ethyl}-amine], the figure is 0.3 µM.

The values above are taken from patent US8557800B2, “Sphingosine kinase inhibitors” (Apogee Biotechnology Corporation, priority 2005, dated 2013).
